# Results reported in patent US8492342B2, “Preprocalcitonin antigen T epitopes” (Institut Gustave Roussy, priority 2007, dated 2013).
# pEC50: −log10 of the molar value.
# Columns and labels:
# Type in all cases: cell-based, human
# IGR-Heu tumor cells = test: Proteasome inhibition: CTL recognition (TNFβ release) of inhibitor-treated IGR-Heu tumor cells; settings: 10 μM, FIG. 4A
# Method: FIG. 4: Processing of the preprocalcitonin16-25 peptide is proteasome- and TAP-independent. A. IGR-Heu target cells were incubated for 2 h at 37° C. in the presence or absence of the proteasome-specific inhibitor epoxomicin, and then Heu161 cells were added. The autologous Heu127 clone, recognizing on IGR-Heu a proteasome-dependent mutated α-actinin-4 peptide, was included as a positive control. TNFβ released in medium after 24 h of culture was measured as above. B. 293-EBNA cells were cotransfected with pCEP4 containing either cDNA 150 (upper panel) or the mutated α-actinin-4 cDNA (lower panel), with pcDNA3.1 containing an HLA-A*0201 construct, and with various amounts of vector pBJi-neo containing IPC47 cDNA. CTL clones Heu161 (upper panel) or Heu127 (lower panel) were then added. Controls included 293-EBNA cells transfected with HLA-A2 or pBJi-neo-IPC47 alone, and incubation of transfectants with either preprocalcitonin or α-actinin-4 peptides. Data shown are representative of four independent experiments.
# (§1) TNFβ was detected by measuring the cytotoxicity of the culture medium on TNF-sensitive WEHI-164c13 cells with a MTT colorimetric assay (ESPEVIK & NISSEN-MEYER, J Immunol Methods, 95, 99-105, 1986).
# For proteasomes and SP inhibition, 10^6 tumor cells were resuspended in 300 μl of media in the presence or absence of specific inhibitors. […]
# CTL clone Heu161 [1] = test: Lytic activity of CTL clone on peptide-pulsed 51Cr-labeled Heu-EBV-B cells; settings: E/T 10:1, 4 h chromium release, FIG. 3B
# Method: (§2) FIG. 3: Identification of the antigenic peptide recognized by CTL clone Heu161. A. CTL stimulation with purified synthetic peptides. Peptides were loaded on allogeneic HLA-A2^+ MZ2-MEL.3.1 melanoma cells for 60 min at room temperature before addition of CTL clone Heu161. TNF release was measured 16 h later. Empty circles represent the results obtained with peptide SEQ ID NO: 1, full circles represent the results obtained with peptide SEQ ID NO: 2, empty squares represent the results obtained with peptide SEQ ID NO: 24, full squares represent the results obtained with peptide SEQ ID NO: 25 and empty diamonds represent the results obtained with peptide SEQ ID NO: 26. B. Lytic activity of CTL clone on peptide-pulsed cells. ^51Cr-labeled Heu-EBV-B cells were incubated over 60 min with the indicated concentrations of peptides before addition of CTL clone Heu161 at an E/T cell ratio of 10:1. Chromium release was measured after 4 h. Empty circles represent the results obtained with peptide SEQ ID NO: 1, full circles represent the results obtained with peptide SEQ ID NO: 2
# Cytotoxic activity was measured by a conventional 4-h ^51Cr-release assay using triplicate cultures in round-bottomed 96-well plates. Percent specific cytotoxicity was calculated conventionally; SD were <5%. […]
# CTL clone Heu161 [2] = test: CTL stimulation (TNF release) by synthetic peptides loaded on HLA-A2+ MZ2-MEL.3.1 melanoma cells
# Method: as §2, §1
# We then prepared a series of calcitonin cDNA fragments truncated at their 5′ end and engineered to contain an initiation codon and a Kozak consensus sequence. […] Further trimming narrowed down the peptide-encoding region to residues 9-38 (FIG. 2B). Among a set of overlapping peptides covering this region, only two were recognized by CTL clone Heu161: VLLQAGSLHA (SEQ ID NO: 1) and LVLLQAGSLHA (SEQ ID NO: 2), which are identical, but with an additional leucine in the latter peptide. […] In a lysis assay, the decamer was slightly more efficient than the 11-mer peptide by a factor of about three (FIG. 3B). We concluded that the optimal antigenic peptide recognized by CTL clone Heu161 was VLLQAGSLHA (SEQ ID NO: 1) or preprocalcitonin16-25. This peptide corresponds exactly to the C-terminal part of the preprocalcitonin signal peptide (LE MOULLEC et al., FEBS Lett, 167, 93-7, 1984).
molecule,measurement,setting,value
CC[C@H](C)[C@H](NC(=O)[C@H]([C@@H](C)CC)N(C)C(C)=O)C(=O)N[C@H](C(=O)N[C@@H](CC(C)C)C(=O)[C@@]1(C)CO1)[C@@H](C)O [epoxomicin],effect on recognition by anti-preprocalcitonin CTL clone Heu161,IGR-Heu tumor cells,no effect
"VLLQAGSLHA [SEQ ID NO: 1, optimal antigenic peptide recognized by CTL clone Heu161, C-terminal part of the preprocalcitonin signal peptide]","efficiency in lysis assay, decamer relative to 11-mer (factor)",CTL clone Heu161 [1],about three
same,pEC50,"CTL clone Heu161 [2]; HLA-A2+ melanoma cells loaded 60 min, TNF release after 16 h, FIG. 3A, read-out: peptide concentration giving half-maximal effect (sensitization to recognition by CTL Heu161)",~8.00
same,recognition of peptide by CTL clone Heu161,CTL clone Heu161 [2]; overlapping synthetic peptides of preprocalcitonin,recognized
